Measured values published in patent publication US7094420B2, “Methods of using isomer enriched conjugated linoleic acid compositions” (Natural ASA, priority 1998, dated 2006).

Assay: Mouse feeding trial of diets with different ratios and amounts of CLA isomers
Format: in vivo, ICR mice
Protocol: Based on the results of Example 1, the Inventors believe that the t10,c12 isomer is an active isomer.
The trial was conducted with 84 ICR mice purchased from Harlan Sprague Dawley (Madison, Wis.). The diets were blended using the basal diet, sugar, corn oil and one or a blend of isomers of conjugated linoleic acid (expressed as percent of diet). Each treatment consisted of 2 pens of 3 mice. Mice had food and water ad libitum. Food consumption was monitored daily and mice were weighed every other day when bedding was changed. At three weeks of feeding the diet, mice were euthanized by CO2 and final body weights were taken. Mice were then necropsied and fat pads were weighed. Mice were also analyzed for total body fat. Mice were freeze dried and ground. Duplicate samples were analyzed by proximate analysis (ether extraction, ash, kjeldahl, and moisture).

Compound | improvement in growth (mice fed only c9,t11 CLA, no t10,c12 present, linear) | growth, rate of gain, and feed conversion (mice receiving only c9,t11 CLA) | body fat compared to control mice (mice fed only t10,c12 CLA vs control mice not receiving CLA) | reduction in growth (mice fed t10,c12 isomer only)
CCCCCC/C=C/C=C\CCCCCCCC(=O)O [c9,t11 CLA, c9,t11 octadecadienoic acid] | 16% | increased growth, rate of gain, and feed conversion | – | –
CCCCC/C=C\C=C\CCCCCCCCC(=O)O [t10,c12 CLA, t10,c12 octadecadienoic acid] | – | – | reduced body fat | 10%
